Data published in the NIST ThermoML archive (doi:10.1016/j.jct.2011.12.035).

Assay: xn = mol fraction of the nth substance listed
Conditions: Gas, Buoyancy - hydrostatic balance with magnetic suspension - one sinker

N#N [nitrogen] + O=C=O
Conditions	mass density [kg/m3]
250.01 K, 994.48 kPa, x2 = 0.2	15.21
250.02 K, 1979.3 kPa, x2 = 0.2	30.827
250.02 K, 4032.4 kPa, x2 = 0.2	65.204
250.02 K, 6013.2 kPa, x2 = 0.2	100.543
250.02 K, 8000.9 kPa, x2 = 0.2	137.785
250.02 K, 10004 kPa, x2 = 0.2	176.401
250.02 K, 12010 kPa, x2 = 0.2	215.101
250.02 K, 14018 kPa, x2 = 0.2	252.741
250.02 K, 16027 kPa, x2 = 0.2	288.385
250.02 K, 18039 kPa, x2 = 0.2	321.449
250.02 K, 19633 kPa, x2 = 0.2	345.629
250.04 K, 2996.3 kPa, x2 = 0.2	47.559
250.04 K, 4997.5 kPa, x2 = 0.2	82.144
250.05 K, 488.24 kPa, x2 = 0.2	7.397
250.05 K, 997.91 kPa, x2 = 0.2	15.262
250.05 K, 6997.7 kPa, x2 = 0.2	118.767
250.05 K, 8998.8 kPa, x2 = 0.2	156.893
250.05 K, 11001 kPa, x2 = 0.2	195.63
250.05 K, 13005 kPa, x2 = 0.2	233.864
250.05 K, 15008 kPa, x2 = 0.2	270.511
250.05 K, 17012 kPa, x2 = 0.2	304.796
250.05 K, 17639 kPa, x2 = 0.2	314.981
274.99 K, 998.23 kPa, x2 = 0.2	13.8
274.99 K, 1987.8 kPa, x2 = 0.2	27.804
274.99 K, 3995.6 kPa, x2 = 0.2	57.18
274.99 K, 5997.2 kPa, x2 = 0.2	87.563
274.99 K, 7998.9 kPa, x2 = 0.2	118.772
274.99 K, 10000 kPa, x2 = 0.2	150.404
274.99 K, 12005 kPa, x2 = 0.2	182.017
274.99 K, 14006 kPa, x2 = 0.2	213.01
274.99 K, 16009 kPa, x2 = 0.2	243.011
274.99 K, 18043 kPa, x2 = 0.2	272.044
274.99 K, 19430 kPa, x2 = 0.2	290.888
275.02 K, 996.58 kPa, x2 = 0.501	16.162
275.02 K, 1993.3 kPa, x2 = 0.501	33.323
275.02 K, 2996.6 kPa, x2 = 0.501	51.754
275.02 K, 3997.4 kPa, x2 = 0.501	71.374
275.02 K, 4998.7 kPa, x2 = 0.501	92.411
275.02 K, 5999.5 kPa, x2 = 0.501	114.98
275.02 K, 7003.4 kPa, x2 = 0.501	139.278
275.02 K, 8006 kPa, x2 = 0.501	165.225
275.02 K, 9125.5 kPa, x2 = 0.501	196.081
275.02 K, 10029 kPa, x2 = 0.501	222.169
275.02 K, 11018 kPa, x2 = 0.501	251.523
275.02 K, 12025 kPa, x2 = 0.501	281.541
275.02 K, 13025 kPa, x2 = 0.501	310.916
275.03 K, 14032 kPa, x2 = 0.501	339.405
275.03 K, 15032 kPa, x2 = 0.501	366.266
275.03 K, 15926 kPa, x2 = 0.501	388.806
275.04 K, 17027 kPa, x2 = 0.501	414.634
275.04 K, 17563 kPa, x2 = 0.501	426.437
299.95 K, 2996.2 kPa, x2 = 0.2	38.386
299.95 K, 4996.3 kPa, x2 = 0.2	64.833
299.95 K, 6997.1 kPa, x2 = 0.2	91.756
299.95 K, 8997.6 kPa, x2 = 0.2	118.906
299.95 K, 11032 kPa, x2 = 0.2	146.5
299.95 K, 13037 kPa, x2 = 0.2	173.362
299.95 K, 15002 kPa, x2 = 0.2	199.149
299.95 K, 17077 kPa, x2 = 0.2	225.549
299.95 K, 18151 kPa, x2 = 0.2	238.85
299.96 K, 492.88 kPa, x2 = 0.2	6.193
299.96 K, 984.74 kPa, x2 = 0.2	12.423
299.96 K, 995.87 kPa, x2 = 0.501	14.686
299.96 K, 15998 kPa, x2 = 0.501	308.658
299.97 K, 1995.1 kPa, x2 = 0.501	30.061
299.97 K, 2998.8 kPa, x2 = 0.501	46.195
299.97 K, 4000.2 kPa, x2 = 0.501	62.993
299.97 K, 5015.8 kPa, x2 = 0.501	80.785
299.97 K, 6023.7 kPa, x2 = 0.501	99.216
299.97 K, 7004.9 kPa, x2 = 0.501	117.9
299.97 K, 8009.1 kPa, x2 = 0.501	137.74
299.97 K, 9014.3 kPa, x2 = 0.501	158.299
299.97 K, 9993.3 kPa, x2 = 0.501	178.967
299.97 K, 9996.5 kPa, x2 = 0.501	178.959
299.97 K, 10996 kPa, x2 = 0.501	200.469
299.97 K, 11995 kPa, x2 = 0.501	222.215
299.97 K, 12998 kPa, x2 = 0.501	244.208
299.97 K, 13996 kPa, x2 = 0.501	266
299.97 K, 14996 kPa, x2 = 0.501	287.528
299.97 K, 16996 kPa, x2 = 0.501	329.04
299.97 K, 17997 kPa, x2 = 0.501	348.774
299.97 K, 19020 kPa, x2 = 0.501	368.091
299.97 K, 19970 kPa, x2 = 0.501	385.259
324.96 K, 1994 kPa, x2 = 0.2	23.265
324.96 K, 1994.1 kPa, x2 = 0.2	23.265
324.96 K, 3976.6 kPa, x2 = 0.2	46.775
324.96 K, 5997.1 kPa, x2 = 0.2	70.986
324.96 K, 7997.5 kPa, x2 = 0.2	95.062
324.96 K, 9999.3 kPa, x2 = 0.2	119.106
324.96 K, 12001 kPa, x2 = 0.2	142.924
324.96 K, 14002 kPa, x2 = 0.2	166.343
324.96 K, 16004 kPa, x2 = 0.2	189.249
324.96 K, 18002 kPa, x2 = 0.2	211.461
324.96 K, 19964 kPa, x2 = 0.2	232.536
324.98 K, 974.07 kPa, x2 = 0.501	13.176
324.98 K, 1991.5 kPa, x2 = 0.501	27.367
324.98 K, 2996.4 kPa, x2 = 0.501	41.83
324.98 K, 3995.3 kPa, x2 = 0.501	56.615
324.98 K, 4997.2 kPa, x2 = 0.501	71.872
324.98 K, 5995.1 kPa, x2 = 0.501	87.485
324.98 K, 6998.1 kPa, x2 = 0.501	103.583
324.98 K, 7998.2 kPa, x2 = 0.501	120.002
324.98 K, 9001.9 kPa, x2 = 0.501	136.826
